Data from article PMC10283052, “Intranasal delivery of mitochondrial protein humanin rescues cell death and promotes mitochondrial function in Parkinson's disease” (Theranostics, 2023).
“Also recorded” adds a separate entry of the source.

Key:
SH-SY5Y cells [1] = assay: Real-time qPCR of mitochondrial rRNA and humanin transcripts; assay type: cell-based, human; settings: IMT1 co-treated with HN for 24 h, dose-dependent
Procedure: For real-time qPCR, total RNA was extracted using TRIzol reagent (Thermo Fisher Scientific). cDNA was synthesized using a cDNA synthesis kit (Bioneer Corporation), according to the manufacturer's protocol. The mRNA levels were analyzed in a LightCycler 96 (Roche, Basel, Switzerland) using SYBR Green I master mix and SensiFAST™ SYBR® No-ROX Kit (Bioline, Paris, France). B2M (beta-2-microglobulin) gene expression was used to normalize gene expression data. The primer sequences used in this experiment are in Table S2.

[2] = test system: transgenic mouse model of AD; settings: without altering Aβ production; cited from earlier work
From the text: Humanin is the first peptide representing a novel group of naturally occurring bioactive peptides encoded by the mitochondrial genome, termed MDPs. Since its discovery in 2001 [12], humanin has been proposed as a potential protective peptide for neurological disorders, cardiovascular diseases, and metabolic dysfunction. The central role of humanin in the protective response has been extensively studied in AD [13]. Maftei et al., using affinity mass spectrometry, identified that humanin can directly bind to amyloid β (Aβ), which subsequently disrupts the oligomerization of Aβ [57]. Further ...

[3] = test system: differentiated PC12 cells; assay: Pathway inhibitors on HN effects in MPP+-challenged differentiated PC12 cells; assay type: cell-based, rat; settings: for neuroprotective effect of HN against MPP+ neurotoxicity (MTT viability): inhibitor 2 h before HN 10 μM, then MPP+ 1 mM 24 h, MK2206 1 μM, wortmannin 1 μM, U0126 10 μM
Procedure: For neuronal differentiation of PC12 cells, the cells were grown in DMEM containing 1.5% horse serum, 1.5% FBS, 1% P/S, and 100 ng/mL nerve growth factor (NGF, Thermo Fisher Scientific) every 2 days. PC12 cells were differentiated for 7 days and used for subsequent experiments.
Mouse brain tissue samples and cells were homogenized in radioimmunoprecipitation assay (RIPA) buffer (Cell Signaling, Danvers, MA, USA) in the presence of a protease and phosphatase inhibitor cocktail (Thermo Fisher Scientific). The samples were sonicated on ice, and the supernatant was collected after centrifugation at 4°C at 10,000 g for 5 min. The protein samples were loaded and separated using Tris-glycine SDS-PAGE. To detect the HN peptide, the proteins were separated into three layers of tricine SDS-PAGE, as previously described. The separated proteins were transferred to nitrocellulose membranes (GenDEPOT, Barker, TX, USA). The membranes were blocked for 0.5 h, followed by incubation with appropriate primary antibodies overnight at 4°C. The primary antibodies used were as follows: anti-tyrosine hydroxylase (Cat # P40101, Pel-Freez Biologicals), anti-HN (Cat # RA19000, Neuromics), anti-β-actin (Cat # GTX109639, GeneTex, Irvine, CA, USA), and anti-GAPDH (Cat # AM4300, Thermo Fisher Scientific). After washing, the membranes were incubated with horseradish peroxidase-labeled secondary antibodies (Cell Signaling Technology) and visualized using enhanced chemiluminescence reagents (DoGen, Seoul, South Korea). The results were analyzed using the ImageJ densitometry system. In order to detect circulating humanin in human plasma samples, proteins were extracted by trichloroacetic acid (TCA) precipitation. Loading of an equal amount of protein was confirmed by Coomassie staining of plasma samples which were depleted of albumin by Minute™ Albumin Depletion Reagent (Invent Biotechnologies, Plymouth, MN, USA).
Following treatment with the aforementioned reagents, the cells were washed and treated with 3-(4,5-dimethylthiazol-2-yl)-2,5-diphenyl-tetrazolium bromide (MTT, Thermo Fisher Scientific). Briefly, the cells were seeded in a 96-well plate at a density of 5 × 10^3 cells/well. After 24 h, a neurotoxin 1-methyl-4-phenylpyridinium (MPP^+) (Sigma-Aldrich) was applied to induce toxicity in neuronal cells. Next, the cells were incubated with MTT for 4 h, and formazan crystals were solubilized using DMSO. Absorbance was measured using a multi-plate reader at a wavelength of 570 nm, and the viability of the cells was recorded as a percentage of the control.

SH-SY5Y cells [4] = assay: FITC-HN immunofluorescence in cells; assay type: cell-based, human
Procedure: For HN treatment, HN was synthesized as per Fmoc-based SPPS at GL Biochem (Shanghai, China). The lyophilized synthesized HN peptide or HN peptide conjugated with fluorescein isothiocyanate (FITC-HN) was dissolved in Dimethyl sulfoxide (DMSO) and incubated at 37 ℃ with mild stirring (100 rpm) for 1 h to prepare a 10 mM stock solution. The stock solutions were kept at -20 ℃ until use.
For staining, the cells were seeded on PDL-coated glass slides and treated as indicated above. The samples were fixed using methanol and permeabilized using 0.1% Triton X-100 in PBS. […] Fluorescent images were captured at the Neuroscience Translational Research Solution Center (Busan, South Korea) using an LSM 700 confocal microscope (Zeiss, Jena, Germany). The mitochondrial network morphology was assessed using the FIJI/ImageJ software as described previously.

[5] = Brain delivery after intranasal FITC-HN; assay type: in vivo, mouse
Procedure: For intranasal HN treatment, the synthetic HN peptide was delivered according to a procedure reported by Capsoni et al. The synthetic HN peptide was diluted in ddH2O to a concentration of 0.1 and 5 mg/kg for mice (total volume of 40 μL) at 37 ℃ with mild stirring. The mice were held firmly in one hand in a supine position with their head at 90°. Synthetic HN was administered in the form of 5-μL drops over 20 min in alternating nostrils every 3 min. After administration, the heads of the mice were held in the same position to prevent loss of the applied solution from the nares.
To stain the mouse brain tissue samples, transcardial perfusion was performed using PBS and 4% paraformaldehyde in PBS. The brain and trigeminal ganglia were removed, post-fixed using 4% paraformaldehyde in PBS, and stored in a 30% sucrose solution at 4 ℃ until they sank. Coronal sections were prepared (thickness: 10 µm) using a sliding microtome. After blocking with 5% BSA, the samples were incubated with the appropriate primary antibody as mentioned above. […] To enhance immune signals in immunohistochemistry, a Vectastain Elite ABC Standard Kit (Vector Laboratories) was used, as per the manufacturer's instructions. The stained sections were scanned using a Pannormic MIDI scanner (3[…], Budapest, Hungary) at the Neuroscience Translational Research Solution Center. Unbiased stereological analyses were performed as previously described. […] Fluorescent images were captured at the Neuroscience Translational Research Solution Center (Busan, South Korea) using an LSM 700 confocal microscope (Zeiss, Jena, Germany). Mitochondrial network morphology was further assessed using the FIJI/ImageJ software as described previously.
A commercially available ELISA kit (MyBioSource, San Diego, CA, USA) was used to measure plasma and brain HN levels. To measure the protein levels of HN, brain homogenates (100 μg protein/well) and 100 μL of plasma samples were loaded onto competitive ELISA plates according to the manufacturer's instructions. The absorbance was measured using a microplate reader (Molecular Devices, Sunnyvale, CA, USA) at a wavelength of 450 nm.

[6] = wortmannin 1 μM pre-treatment, HN 10 μM, MPP+ 1 mM

For `Cc1ccccc1-c1cc(=O)oc2cc(OC(C)C(=O)N(C)C)ccc12` (stereo not shown) [IMT1, reference compound], the “humanin transcripts induced by HN peptide” value (SH-SY5Y cells [1]) was “markedly attenuated humanin transcripts”.

In the case of “S14G-HN: a highly potent human derivative (MAPRGFSCLLLLTGEIDLPVKRRA; Humanin; UniProt Q8IVG9 1-24, looked up, variant S14G)”, the “total amyloid plaque burden in cerebellum, hippocampus and cortex” value [2] is given as “significantly reduced the total amyloid plaque burden”.

In the case of `COC[C@H]1OC(=O)c2coc3c2[C@@]1(C)C1=C(C3=O)[C@@H]2CCC(=O)[C@@]2(C)C[C@H]1OC(C)=O` [wortmannin], the “neuroprotective effect of HN against MPP+ neurotoxicity (MTT viability)” value (shortened to “neuroprotective effect of HN”) [3] is reported as “abolished the neuroprotective effect of HN”, the “induction of intracellular humanin by HN treatment, western blot” value ([3]; wortmannin 1 μM pre-treatment 1 h, HN 10 μM, 24 h, MPP+-exposed cells) is reported as “significantly inhibited; also recorded: blocked the induction of HN expression” and the HN-enhanced mitochondrial mass [3, 6] is reported as “significantly blocked the impact of HN on enhancing mitochondrial mass”. For the same compound, the “HN-promoted mitochondrial biogenesis, western blot” value [3, 6] was “significantly blocked”.

With “fluorescein isothiocyanate-conjugated humanin [FITC-HN]” the “intracellular humanin signal (antibody staining)” value (SH-SY5Y cells [4]; 24 h FITC-HN treatment, untreated cells show weak signal) was “strong signal of intracellular humanin”, the “intracellular FITC fluorescence signal” value (SH-SY5Y cells [4]; 24 h after FITC-HN treatment, suggests degradation of the FITC-HN peptide) was “no detectable fluorescent signal” and the “intracellular FITC fluorescence signal” value (SH-SY5Y cells [4]; within 30 min of FITC-HN treatment, confocal immunofluorescence) was “strong intracellular fluorescence signal”. For the same compound, the “FITC-HN distribution in trigeminal nerve endoneurium” value ([5]; cross-sections of trigeminal nerves after intranasal administration, transgenic PD mice) was “diffuse to punctate in the perineural space of the endoneurium”, the “FITC-HN signal in trigeminal nerve perineurium region” value ([5]; cross-sections of trigeminal nerves, compared with endoneurium) was “more prominent FITC-HN signal” and the “duration of widespread brain distribution after intranasal administration” value ([5]; human α-Syn transgenic PD mice, ELISA of brain regions (CB, OB, ST, HIP, SN, CTX)) was “up to 1 h”. The “time after intranasal injection at which FITC-HN is detectable in midbrain (VTA, aqueduct)” value ([5]; human α-Syn-overexpressing transgenic PD mice, fluorescence imaging) was at most 30 min and the “FITC-HN localisation in brain parenchyma” value ([5]; within 30 minutes after intranasal treatment, GFAP staining) was “found in microvascular endothelial cells surrounded by astrocytic endfeet”.

For `NC1(c2ccc(-c3nc4ccn5c(=O)[nH]nc5c4cc3-c3ccccc3)cc2)CCC1` [MK-2206], the “neuroprotective effect of HN” value [3] was “abolished the neuroprotective effect of HN”.

In the case of `N#CC(=C(/N)Sc1ccccc1N)/C(C#N)=C(/N)Sc1ccccc1N` [U0126], the “neuroprotective effect of HN” value [3] is reported as “did not alter cell viability”.
